PubChem BioAssay (NCI)
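Following 48 hours of exposure in 96-well plates, responses at five concentrations were used to interpolate endpoints linearly. GI50: concentration for 50% inhibition of growth. TGI is the concentration that stops growth completely.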

How the values were obtained:
Assay in all cases: growth of human tumour cells (NCI), 48 h
786-0 renal = system: 786-0 renal
EKVX NSCLC = system: EKVX NSCLC
HCT-15 colon = system: HCT-15 colon
HOP-92 NSCLC = system: HOP-92 NSCLC
LOX IMVI melanoma = system: LOX IMVI melanoma
NCI-H460 lung = system: NCI-H460 lung
SK-MEL-28 melanoma = system: SK-MEL-28 melanoma
SK-OV-3 ovarian = system: SK-OV-3 ovarian
SW-620 colon = system: SW-620 colon
HCT-116 colon = system: HCT-116 colon

## COc1ccc(S(=O)(=O)NC(C)C(=O)O)cc1 (configuration not stated)
786-0 renal
  TGI: > 100 µM
EKVX NSCLC
  TGI: > 100 µM
HCT-15 colon
  TGI: > 100 µM
HOP-92 NSCLC
  TGI: > 100 µM
LOX IMVI melanoma
  TGI: > 100 µM
NCI-H460 lung
  TGI: > 100 µM
SK-MEL-28 melanoma
  TGI: > 100 µM
SK-OV-3 ovarian
  TGI: > 100 µM
SW-620 colon
  TGI: > 100 µM

## COc1ccc(/C=C2\CN(C)Cc3c2nc(N)nc3-c2ccc(OC)cc2)cc1
786-0 renal
  TGI: > 100 µM
EKVX NSCLC
  TGI: > 100 µM
HCT-116 colon
  TGI: > 100 µM
LOX IMVI melanoma
  TGI: > 100 µM
NCI-H460 lung
  TGI: > 100 µM
SK-MEL-28 melanoma
  TGI: > 100 µM
SK-OV-3 ovarian
  TGI: > 100 µM
SW-620 colon
  TGI: > 100 µM

## O=C(/C=C/c1ccc(B(O)O)cc1)/C=C/c1ccc(B(O)O)cc1
786-0 renal
  GI50: 2.16 µM
  TGI: 5.57 µM
HCT-116 colon
  GI50: 0.343 µM
  TGI: 1.21 µM
HCT-15 colon
  GI50: 2.67 µM
  TGI: 10.7 µM
HOP-92 NSCLC
  GI50: 7.94 µM
  TGI: 22.9 µM
LOX IMVI melanoma
  GI50: 1.59 µM
  TGI: 3.07 µM
NCI-H460 lung
  GI50: 8.19 µM
  TGI: 23.6 µM
SK-MEL-28 melanoma
  GI50: 2.26 µM
  TGI: 5.21 µM
SK-OV-3 ovarian
  GI50: 3.65 µM
  TGI: 14.5 µM
SW-620 colon
  GI50: 1.79 µM
  TGI: 4.02 µM

## C#CCC[C@@H]1O[C@@]1(C)CC/C=C(\C)CC/C=C/C=O
786-0 renal
  TGI: > 100 µM
EKVX NSCLC
  TGI: > 100 µM
HCT-15 colon
  TGI: > 100 µM
HOP-92 NSCLC
  TGI: 63.5 µM
LOX IMVI melanoma
  TGI: 35.2 µM
NCI-H460 lung
  TGI: > 100 µM
SK-OV-3 ovarian
  TGI: > 100 µM
SW-620 colon
  TGI: 51.4 µM

## CC1CC2C3CC(F)C4=CC(=O)C=CC4(C)C3(F)C(O)CC2(C)C1(O)C(=O)COC(=O)C(C)(C)C (configuration not stated)
786-0 renal
  TGI: > 100 µM
EKVX NSCLC
  TGI: > 100 µM
HCT-116 colon
  TGI: > 100 µM
HCT-15 colon
  TGI: > 100 µM
HOP-92 NSCLC
  TGI: > 100 µM
LOX IMVI melanoma
  TGI: > 100 µM
NCI-H460 lung
  TGI: > 100 µM
SK-MEL-28 melanoma
  TGI: > 100 µM
SW-620 colon
  TGI: > 100 µM

## COc1cc(CCc2cccnc2)cc(OC)c1OC
786-0 renal
  TGI: > 100 µM
EKVX NSCLC
  TGI: > 100 µM
HCT-116 colon
  TGI: > 100 µM
HCT-15 colon
  TGI: > 100 µM
HOP-92 NSCLC
  TGI: > 100 µM
LOX IMVI melanoma
  TGI: > 100 µM
NCI-H460 lung
  TGI: > 100 µM
SK-MEL-28 melanoma
  TGI: > 100 µM
SW-620 colon
  TGI: > 100 µM

## COC(=O)Cc1cc(OC)c(OC)cc1Br
786-0 renal
  TGI: > 100 µM
EKVX NSCLC
  TGI: > 100 µM
HCT-116 colon
  TGI: > 100 µM
HOP-92 NSCLC
  TGI: > 100 µM
NCI-H460 lung
  TGI: > 100 µM
SK-MEL-28 melanoma
  TGI: > 100 µM
SK-OV-3 ovarian
  TGI: > 100 µM
SW-620 colon
  TGI: > 100 µM

## CC1=C(C(=O)NCc2ccccc2)C(c2ccc(C3C(C(=O)NCc4ccccc4)=C(C)NC(C)=C3C(=O)NCc3ccccc3)cc2)C(C(=O)NCc2ccccc2)=C(C)N1
786-0 renal
  TGI: 28.9 µM
EKVX NSCLC
  TGI: 28.9 µM
HCT-116 colon
  TGI: 10.2 µM
HCT-15 colon
  TGI: 39 µM
HOP-92 NSCLC
  TGI: 32.9 µM
NCI-H460 lung
  TGI: > 100 µM
SK-MEL-28 melanoma
  TGI: 25.2 µM
SW-620 colon
  TGI: 22.7 µM

## O=S(=O)(Nc1ncccn1)c1ccc(N=Nc2ccc(O)c3ncccc23)cc1
786-0 renal
  GI50: 7.17 µM
  TGI: 58.1 µM
HCT-116 colon
  GI50: 4.2 µM
  TGI: 40.4 µM
HCT-15 colon
  GI50: 4.05 µM
  TGI: 22.5 µM
LOX IMVI melanoma
  GI50: 8.7 µM
  TGI: 33.7 µM
NCI-H460 lung
  GI50: 3.69 µM
  TGI: 17.2 µM
SK-MEL-28 melanoma
  GI50: 12.5 µM
  TGI: 46.3 µM
SK-OV-3 ovarian
  GI50: 19.2 µM
  TGI: > 100 µM
SW-620 colon
  GI50: 5.67 µM
  TGI: 33.7 µM

## COc1cccc([C@H]2CC(=O)c3cc4c(cc3N2)OCO4)c1
786-0 renal
  GI50: 0.0789 µM
  TGI: > 100 µM
HCT-116 colon
  GI50: 0.0604 µM
  TGI: > 100 µM
HCT-15 colon
  GI50: 0.0434 µM
  TGI: > 100 µM
HOP-92 NSCLC
  TGI: > 100 µM
LOX IMVI melanoma
  GI50: 0.273 µM
  TGI: > 100 µM
SK-MEL-28 melanoma
  TGI: > 100 µM
SK-OV-3 ovarian
  GI50: 0.556 µM
  TGI: > 100 µM
SW-620 colon
  GI50: 0.0676 µM
  TGI: > 100 µM
